In ChEMBL document CHEMBL1129544, “A structure-activity relationship study of novel phenylacetamides which are sodium channel blockers” (J Med Chem, 1996):

Target: Sodium channel protein type 2 subunit alpha (Rattus norvegicus, UniProt P04775)
Assay: Inhibitory activity against type IIA sodium channel in CNaIIA-1 cell line expressed in CHO cells
Format: cell-based

Sequence of Sodium channel protein type 2 subunit alpha (P04775 whole entry): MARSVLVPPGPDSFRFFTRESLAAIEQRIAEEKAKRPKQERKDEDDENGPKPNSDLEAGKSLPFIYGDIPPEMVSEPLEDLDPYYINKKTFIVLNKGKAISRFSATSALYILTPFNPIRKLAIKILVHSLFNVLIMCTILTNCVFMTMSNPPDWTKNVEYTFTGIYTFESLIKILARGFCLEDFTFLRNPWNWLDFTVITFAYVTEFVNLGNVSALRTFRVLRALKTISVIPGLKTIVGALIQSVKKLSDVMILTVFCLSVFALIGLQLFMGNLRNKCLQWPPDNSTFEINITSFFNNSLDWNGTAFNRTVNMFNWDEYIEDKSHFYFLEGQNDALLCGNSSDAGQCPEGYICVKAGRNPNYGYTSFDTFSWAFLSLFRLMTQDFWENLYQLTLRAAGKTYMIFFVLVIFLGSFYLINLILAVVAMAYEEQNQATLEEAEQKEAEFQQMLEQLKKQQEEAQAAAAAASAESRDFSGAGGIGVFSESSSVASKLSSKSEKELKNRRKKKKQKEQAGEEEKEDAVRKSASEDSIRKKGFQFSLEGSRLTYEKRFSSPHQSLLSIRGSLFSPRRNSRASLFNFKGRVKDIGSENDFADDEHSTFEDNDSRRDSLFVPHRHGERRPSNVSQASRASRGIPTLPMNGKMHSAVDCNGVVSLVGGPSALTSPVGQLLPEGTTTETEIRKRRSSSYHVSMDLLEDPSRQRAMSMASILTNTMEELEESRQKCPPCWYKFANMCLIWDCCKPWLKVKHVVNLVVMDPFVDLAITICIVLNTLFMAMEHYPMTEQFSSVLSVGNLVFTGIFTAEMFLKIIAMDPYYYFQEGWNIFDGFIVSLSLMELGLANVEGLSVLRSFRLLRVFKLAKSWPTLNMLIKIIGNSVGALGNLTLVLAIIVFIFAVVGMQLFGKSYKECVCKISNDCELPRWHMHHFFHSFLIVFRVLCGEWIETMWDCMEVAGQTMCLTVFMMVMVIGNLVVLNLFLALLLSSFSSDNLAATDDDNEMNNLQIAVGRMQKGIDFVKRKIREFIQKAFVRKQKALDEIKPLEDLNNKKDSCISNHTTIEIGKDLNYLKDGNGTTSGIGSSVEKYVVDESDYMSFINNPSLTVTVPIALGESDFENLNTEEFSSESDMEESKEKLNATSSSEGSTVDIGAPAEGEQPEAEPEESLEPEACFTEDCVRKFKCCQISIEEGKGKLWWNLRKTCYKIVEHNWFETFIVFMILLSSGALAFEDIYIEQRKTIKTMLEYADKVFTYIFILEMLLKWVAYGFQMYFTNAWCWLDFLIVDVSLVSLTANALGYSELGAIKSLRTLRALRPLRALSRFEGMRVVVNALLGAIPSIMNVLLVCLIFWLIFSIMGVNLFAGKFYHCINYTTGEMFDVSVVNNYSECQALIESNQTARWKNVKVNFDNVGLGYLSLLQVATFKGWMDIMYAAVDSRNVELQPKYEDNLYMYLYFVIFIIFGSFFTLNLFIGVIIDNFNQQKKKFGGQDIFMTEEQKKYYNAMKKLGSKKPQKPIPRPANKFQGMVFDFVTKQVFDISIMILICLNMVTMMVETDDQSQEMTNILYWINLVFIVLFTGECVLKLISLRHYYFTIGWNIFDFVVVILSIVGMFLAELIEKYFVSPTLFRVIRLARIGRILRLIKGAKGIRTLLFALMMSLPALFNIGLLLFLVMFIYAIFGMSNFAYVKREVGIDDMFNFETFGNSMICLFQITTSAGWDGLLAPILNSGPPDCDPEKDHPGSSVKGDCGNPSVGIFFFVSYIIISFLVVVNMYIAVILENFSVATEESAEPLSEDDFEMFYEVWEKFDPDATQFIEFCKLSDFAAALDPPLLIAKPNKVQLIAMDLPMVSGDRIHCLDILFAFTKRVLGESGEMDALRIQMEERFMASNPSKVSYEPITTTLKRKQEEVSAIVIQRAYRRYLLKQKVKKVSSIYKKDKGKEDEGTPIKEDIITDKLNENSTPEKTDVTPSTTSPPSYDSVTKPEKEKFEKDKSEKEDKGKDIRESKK

| Structure (SMILES) | IC50 |
| --- | --- |
| O=C(NCCCCN1CCCCC1)C(c1ccccc1)c1ccccc1 | 10 µM |
| O=c1[nH]c2ccccc2n1C1CCN(CCCC(c2ccc(F)cc2)c2ccc(F)cc2)CC1 [PIMOZIDE] | 0.34 µM |
| O=C(NC1CN2CCC1CC2)C(c1ccccc1)c1ccccc1 (stereo not drawn) | 95 µM |
| CN1CCN(CCCNC(=O)C(c2ccccc2)c2ccccc2)CC1 | > 200 µM |
| O=C(NCCCN1CCN(Cc2ccccc2)CC1)C(c1ccccc1)c1ccccc1 | 0.7 µM |
| CN1CCCC1CCNC(=O)C(c1ccccc1)c1ccccc1 (stereo not drawn) | 32 µM |
| CN(C)CCCNC(=O)C(c1ccccc1)c1ccccc1 | 20 µM |
| O=C(NCCCN1CCC(c2ccccc2)CC1)C(c1ccccc1)c1ccccc1 | 1.1 µM |
| CN(CCCNC(=O)C(c1ccccc1)c1ccccc1)Cc1ccccc1 | 1.2 µM |
| O=C(NCCCN1CCC(n2c(=O)[nH]c3ccccc32)CC1)C(c1ccccc1)c1ccccc1 | 0.72 µM |
| CCN(CC)CCCNC(=O)C(c1ccccc1)c1ccccc1 | 4.4 µM |
| O=C(NCCCN1CCOCC1)C(c1ccccc1)c1ccccc1 | 6.5 µM |
| O=C(NCCN1CCCCC1)C(c1ccccc1)c1ccccc1 | 7.2 µM |
| CN(C)CCCN(C)C(=O)C(c1ccccc1)c1ccccc1 | > 200 µM |
| O=C(NCCCN1CCC(O)(c2ccccc2)CC1)C(c1ccccc1)c1ccccc1 | 2.2 µM |
| CC(CNC(=O)C(c1ccccc1)c1ccccc1)CN1CCC(c2ccccc2)CC1 (stereo not drawn) | 1.5 µM |
| O=C(NCCCN1CCCCC1)C(c1ccccc1)c1ccccc1 | 5.3 µM |
| O=C(NCCCN1CCC(Oc2ccccc2)CC1)C(c1ccccc1)c1ccccc1 | 1.4 µM |
| O=C(NCCCN1CCC(Cc2ccccc2)CC1)C(c1ccccc1)c1ccccc1 | 0.6 µM |
| CC1CN(CCCNC(=O)C(c2ccccc2)c2ccccc2)CC(C)O1 (stereo not drawn) | 2.7 µM |
| CC1CCC(C)N1CCCNC(=O)C(c1ccccc1)c1ccccc1 (stereo not drawn) | 4.6 µM |
| NCCCNC(=O)C(c1ccccc1)c1ccccc1 | 40 µM |
| COc1ccccc1N1CCN(CCCNC(=O)C(c2ccccc2)c2ccccc2)CC1 | 1.2 µM |
